According to US6933322B2, “Substituted naphthylenes for the treatment of non-insulin dependent diabetes mellitus” (Wyeth, priority 2002, dated 2005):

Experiments:
diabetic ob/ob mice [1] = experiment: Hypoglycemic effect in diabetic ob/ob mice; assay type: in vivo, mouse
Description: Hypoglycemic Effect in Diabetic OB/OB Mice
Procedure: In each study, male or female ob/ob (C57 B1/6J) mice and their mean litermates (ob/+ or +/+, Jackson Laboratories) ages 2 to 5 months (10 to 65 g) were randomized according to plasma glucose into 4 groups of 10 mice. The mice were housed 5 per cage and were maintained on normal rodent chow with water ad libitum. Mice receive compound daily by gavage (suspended in 0.5 ml of 0.5% methyl cellulose); dissolved in the drinking water; or admixed in the diet. The dose of compounds given ranges from 2.5 to 200 mg/kg body weight/day. Body weight of fed animals was measured at the beginning of each week and doses for the entire week were calculated using this weight and were expressed in terms of the active moiety of the compound. Control mice receive vehicle only. […]
Measurements: The plasma was isolated by centrifugation and the concentration of glucose was measured enzymatically on an Abbott V. P. Analyzer and the plasma concentration of insulin was determined by radioimmunoassay (Heding, 1972)
Analysis of variance followed by Dunnett's Comparison Test (one-tailed) was used to estimate the significant difference between the plasma glucose values from the control group and the individual compound treated groups (CMS SAS Release 5.18). A compound will be considered active if the difference has a p<0.05.

[2] = tested on: hepatocytes isolated and cultured from obese Zucker (fa/fa) rats; experiment: Inhibition of glucose output from hepatocytes isolated and cultured from obese Zucker (fa/fa) rats; assay type: cell-based, rat; conditions: inhibition of glucose output compared to glucagon stimulated cells
Description: Inhibition of Glucose Output from Hepatocytes Isolated and Cultured from Obese Zucker (fa/fa) Rats and Their Lean Controls
Culturing of Hepatocytes: Isolated hepatocytes were plated on 12 well rat-tail collagen coated plates at a cell density of 5×10(5) cells/ml (approximately 1 ml of cell suspension per well). Following a one hour attachment period in which plates were incubated in a CO2 incubator at 37 deg C. (95% O2, 5% CO2), the supernatant containing unattached hepatocytes was removed and replaced with fresh media (1 ml/well) containing 1 μM dexamethasone and 100 pM insulin. Cells were maintained at 37 deg C. for 48 hours in a 95% O2, 5% CO2 environment. At the end of the first 24 hours, the media was aspirated off of the wells and replaced with fresh media containing the same concentrations of dexamethasone and insulin as described earlier. Treatment with Drugs and Assessment of Glucose Output: Drugs were routinely added with fresh media 24 hours after the initial attachment period. Eighteen hours later, media was aspirated and 500 μl of fresh Hank's buffer, Buffer D (glucose-free) supplemented with hormones, gluconeogenic substrates and drug(s) was added to each well and incubated for 4 hours. At the end of the 4 hour incubation, media from each well was removed and assayed for glucose content using the hexokinase/glucose-6-phosphate dehydrogenase coupled assay on the Boehringer Mannheim model 911 auto analyzer. Glucose concentration was expressed as μg/ml. Three of the plates from each treated group were frozen for subsequent determination of protein content. Two plates from each treatment group were used to assess the cytotoxicity of drug(s) and other agents as determined by the MTT (tetrazolium) dye reduction method (see below).
Protein test procedure: Three plates with no insulin treatment and three plates with 10^−8 M insulin treatment were used for protein determination. After supernatant has been removed for determination of glucose output the plates were frozen and stored at −20 deg C. until ready to assay for protein content. Prior to determination of protein the plates were defrosted at room temperature for 15 minutes. An aliquot of 1 ml 0.1 N NaOH was added to each well. Plates were incubated at 4 deg C. overnight. Solutions for measurement of protein content were mixed by pipetting the NaOH solution up and down several time with a 1 ml pipette and then transferring to a small polyethylene tube. Protein determination was based on that of the Pierce BCA protein assay protocol (Pierce cat. no. 23223). A set of protein standards (0.2, 0.4, 0.6, 0.8, and 1 mg/ml BSA) was prepared by serial dilution of 1 mg/ml bovine serum albumin with 0.1 N NaOH, and 40 μl of each standard, or control blank was pipetted into a 96-well plate in duplicate. Each unknown protein sample (40 μl) was tested in triplicate. An aliquot of 200 μl of BCA protein assay reagent (consisting of 50 parts Reagent A with 1 part Reagent B) was added to each well. Samples were mixed with a Titertek pipette. The microtiter plate was covered with sealing tape and incubated at room temperature for 1 hour. After incubation, the sealing tape was removed and absorbance measured on a plate reader (Uvmax kinetic microplate reader, Molecular Devices) at 570 nm. A standard curve was prepared by plotting the blank-corrected absorbance against known protein concentrations, and protein concentrations were then determined for each unknown.
Measurements and Calculations: Glucose output was calculated as μg glucose/mg protein/hour, and inhibition of glucose output was calculated as percent inhibition of glucose output when compared to glucagon stimulated cells. Cytotoxicity was determined using the MTT dye reduction assay and data were expressed as percent inhibition of MTT dye reduction compared to control cells. […]

diabetic ob/ob mice [3] = conditions: reference compound, 20 mg/kg/day; cited from earlier work

For O=S(=O)(Nc1ccc2c(OCc3ccc(-c4ccccc4)cc3F)cccc2c1)C(F)(F)F [Example 4, C,C,C-Trifluoro-N-[5-(3-fluoro-biphenyl-4-ylmethoxy)-naphthalen-2-yl]-methanesulfonamide], the “REDUCTION IN PLASMA GLUCOSE Day 1 (6 hr) p.o.” value (diabetic ob/ob mice [1]; 10 mg/kg) was −28% (10 mg/kg), the “REDUCTION IN PLASMA GLUCOSE Day 3 (6 hr) p.o.” value (diabetic ob/ob mice [1]; 10 mg/kg) was −37% (10 mg/kg) and the melting point was 123 to 125 °C.

With O=S(=O)(Nc1ccc2c(OCc3ccc(-c4ccc(C(F)(F)F)cc4)cc3F)cccc2c1)C(F)(F)F [Example 5, C,C,C-Trifluoro-N-[5-(3-fluoro-4′-trifluoromethyl-biphenyl-4-ylmethoxy)-naphthalen-2-yl]-methanesulfonamide] the melting point was 98 to 100 °C and the IC50 ([2]; Rattus norvegicus, Hepatocyte) was 6.3 µM.

Work on O=S(=O)(Nc1ccc2c(OCc3cccc(OCc4ccc(-c5ccc6ccccc6c5)cc4)c3)cccc2c1)C(F)(F)F [Example 14, N-[5-(4-naphthalen-2-yl-benzyloxy-3-ylmethoxy)-naphthalen-2-yl]-C,C,C-trifluoro-methanesulfonamide] yielded an IC50 [2] of 10.4 µM.

In the case of O=S(=O)(Nc1ccc2c(OCc3ccc(-c4cccc(Cl)c4)cc3)cccc2c1)C(F)(F)F [Example 25, N-[5-(3′-Chloro-biphenyl-4-ylmethoxy)-naphthalen-2-yl]-C,C,C-trifluoromethanesulfonamide], the “REDUCTION IN PLASMA GLUCOSE Day 1 (6 hr) p.o.” value (diabetic ob/ob mice [1]; 10 mg/kg) is reported as −22% (10 mg/kg), the “REDUCTION IN PLASMA GLUCOSE Day 3 (6 hr) p.o.” value (diabetic ob/ob mice [1]; 10 mg/kg) is reported as −24% (10 mg/kg) and the melting point is reported as 170 to 171 °C.

In the case of O=S(=O)(Nc1ccc2c(OCc3cccc(-c4ccccc4)c3)cccc2c1)C(F)(F)F [Example 27], the “REDUCTION IN PLASMA GLUCOSE Day 3 (6 hr) p.o.” value (diabetic ob/ob mice [1]; 10 mg/kg) is reported as −31% (10 mg/kg) and the IC50 [2] is reported as 7 µM.

In the case of O=S(=O)(Nc1ccc2c(OCc3ccc(-c4ccc(Cl)c(Cl)c4)cc3Cl)cccc2c1)C(F)(F)F [Example 30, C,C,C-Trifluoro-N-[5-(3,3′,4′-trichloro-biphenyl-4-ylmethoxy)-naphthalen-2-yl]-methanesulfonamide], the “REDUCTION IN PLASMA GLUCOSE Day 1 (6 hr) p.o.” value (diabetic ob/ob mice [1]; 25 mg/kg) is reported as −6% (25 mg/kg), the “REDUCTION IN PLASMA GLUCOSE Day 3 (6 hr) p.o.” value (diabetic ob/ob mice [1]; 25 mg/kg) is reported as −11% (25 mg/kg) and the melting point is reported as 169 to 170 °C. It also gave an IC50 ([2]; Rattus norvegicus, Hepatocyte) of 3.1 µM.

In the case of O=S(=O)(Nc1ccc2c(OCc3ccc(-c4ccc(Cl)cc4)cc3Cl)cccc2c1)C(F)(F)F [Example 31, N-[5-(3,4′-Dichloro-biphenyl-4-ylmethoxy)-naphthalen-2-yl]-C,C,C-trifluoro-methanesulfonamide], the “REDUCTION IN PLASMA GLUCOSE Day 1 (6 hr) p.o.” value (diabetic ob/ob mice [1]; 5 mg/kg) is reported as −23% (5 mg/kg), the “REDUCTION IN PLASMA GLUCOSE Day 3 (6 hr) p.o.” value (diabetic ob/ob mice [1]; 5 mg/kg) is reported as −22% (5 mg/kg) and the melting point is reported as 176 to 178 °C. It also gave an IC50 ([2]; Rattus norvegicus, Hepatocyte) of 2.6 µM.

O=S(=O)(Nc1ccc2c(OCc3csc(-c4ccc(F)cc4F)n3)cccc2c1)C(F)(F)F [Example 46, N-{5-[2-(2,4-Difluoro-phenyl)-thiazol-4-ylmethoxy]-naphthalen-2-yl}-C,C,C-trifluoro-methanesulfonamide] showed a melting point of 191 to 192 °C and an IC50 ([2]; Rattus norvegicus, Hepatocyte) of 2.8 µM.

Molecule O=S(=O)(Nc1ccc2c(OCc3csc(-c4ccc(C(F)(F)F)cn4)n3)cccc2c1)C(F)(F)F [Example 52, C,C,C-Trifluoro-N-{5-[2-(5-trifluoromethyl-pyridin-2-yl)-thiazol-4-yl-methoxy]naphthalen-2-yl}-methanesulfonamide] has a melting point of 197 to 198 °C and an IC50 ([2]; Rattus norvegicus, Hepatocyte) of 12 µM.

COc1ccc(-c2nc(COc3cccc4cc(NS(=O)(=O)C(F)(F)F)ccc34)cs2)cc1 [Example 53, C,C,C-Trifluoro-N-{5-[2-(4-methoxy-phenyl)-thiazol-4-ylmethoxy]-naphthalen-2-yl}-methanesulfonamide] gave a melting point of 151 to 152 °C and an IC50 ([2]; Rattus norvegicus, Hepatocyte) of 9.5 µM.

In the case of O=S(=O)(Nc1ccc2c(OCc3csc(-c4ccc(C(F)(F)F)cc4)n3)cccc2c1)C(F)(F)F [Example 57, N-{5-[2-(4-trufluoromethyl-phenyl)-thiazol-4-ylmethoxy]-naphthalen-2-yl}-C,C,C-trifluoro-methanesulfonamide], the “REDUCTION IN PLASMA GLUCOSE Day 3 (6 hr) p.o.” value (diabetic ob/ob mice [1]; 10 mg/kg) is reported as −33% (10 mg/kg) and the IC50 [2] is reported as 1.5 µM.

With Cc1oc(-c2ccc(C(F)(F)F)cc2)nc1COc1cccc2cc(NS(=O)(=O)C(F)(F)F)ccc12 [Example 81] the “REDUCTION IN PLASMA GLUCOSE Day 1 (6 hr) p.o.” value (diabetic ob/ob mice [1]; 5 mg/kg) was −28% (5 mg/kg) and the “REDUCTION IN PLASMA GLUCOSE Day 3 (6 hr) p.o.” value (diabetic ob/ob mice [1]; 5 mg/kg) was −33% (5 mg/kg).

O=S(=O)(Nc1ccc2c(OCc3coc(-c4ccc(Br)cc4)n3)cccc2c1)C(F)(F)F [Example 86, N-{5-[2-(4-Bromo-phenyl)-oxazol-4-ylmethoxy]naphthalen-2-yl}C,C,C-trifluoromethanesulfonamide] gave a melting point of 205 to 207 °C.

O=S(=O)(Nc1ccc2c(OCc3coc(-c4ccc(C(F)(F)F)cc4)n3)cccc2c1)C(F)(F)F [Example 87, N-{5-[2-(4-trifluoromethyl-phenyl)-oxazol-4-ylmethoxy]naphthalen-2-yl}C,C,C-trifluoromethanesulfonamide] gave a melting point of 205 to 207 °C.

Work on Cc1ccccc1-c1nc(COc2cccc3cc(NS(=O)(=O)C(F)(F)F)ccc23)co1 [Example 88, N-[5-[2-o-tolyl-oxazol-4-ylmethoxy)naphthalen-2-yl]C,C,C-trifluoromethanesulfonamide] yielded a melting point of 127 to 130 °C.

In the case of sodium metavanadate, the “lowering in plasma glucose” value (diabetic ob/ob mice [3]) is given as “significant lowering in plasma glucose”.
